According to PMC12178155 (RSC Advances, 2025):

Key:
EGFR = EGFR (Homo sapiens, UniProt P00533); assay: in vitro EGFR inhibition; type: biochemical
tubulin = tubulin polymerization inhibition; type: biochemical; settings: read-out: Tubulin polymerization IC50

Sequence of EGFR (P00533 25-1210): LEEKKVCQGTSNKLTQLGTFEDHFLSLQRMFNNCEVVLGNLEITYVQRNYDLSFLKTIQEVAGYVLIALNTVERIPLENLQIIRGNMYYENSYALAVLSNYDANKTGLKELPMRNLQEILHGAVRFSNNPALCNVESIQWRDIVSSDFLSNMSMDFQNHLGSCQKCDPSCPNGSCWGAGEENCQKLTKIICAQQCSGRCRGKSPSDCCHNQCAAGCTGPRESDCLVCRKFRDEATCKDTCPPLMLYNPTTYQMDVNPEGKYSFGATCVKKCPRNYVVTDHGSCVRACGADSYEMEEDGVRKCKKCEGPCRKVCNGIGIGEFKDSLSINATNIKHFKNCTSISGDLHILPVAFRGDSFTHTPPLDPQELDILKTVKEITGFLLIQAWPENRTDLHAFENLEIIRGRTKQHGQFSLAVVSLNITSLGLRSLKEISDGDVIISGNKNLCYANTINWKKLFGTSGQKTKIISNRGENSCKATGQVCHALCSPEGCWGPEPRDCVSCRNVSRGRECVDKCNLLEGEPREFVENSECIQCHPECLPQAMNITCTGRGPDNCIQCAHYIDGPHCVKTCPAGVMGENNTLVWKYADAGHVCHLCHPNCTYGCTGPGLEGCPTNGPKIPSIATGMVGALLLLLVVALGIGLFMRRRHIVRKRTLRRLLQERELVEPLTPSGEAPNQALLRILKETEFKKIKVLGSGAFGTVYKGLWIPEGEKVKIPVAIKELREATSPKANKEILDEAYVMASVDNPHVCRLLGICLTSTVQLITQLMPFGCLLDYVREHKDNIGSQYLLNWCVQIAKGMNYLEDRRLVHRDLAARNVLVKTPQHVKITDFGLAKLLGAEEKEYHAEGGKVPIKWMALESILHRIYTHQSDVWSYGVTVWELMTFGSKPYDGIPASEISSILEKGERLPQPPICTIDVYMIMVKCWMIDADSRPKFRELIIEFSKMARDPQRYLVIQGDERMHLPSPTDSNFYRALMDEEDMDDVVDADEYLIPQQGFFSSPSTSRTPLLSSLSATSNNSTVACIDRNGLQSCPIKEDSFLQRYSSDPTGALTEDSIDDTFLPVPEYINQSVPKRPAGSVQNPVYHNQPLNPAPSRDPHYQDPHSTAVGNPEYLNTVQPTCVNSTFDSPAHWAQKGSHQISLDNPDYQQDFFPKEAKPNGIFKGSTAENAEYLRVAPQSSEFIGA

Compound: O=C1Nc2ccc(Cl)cc2C12CC(c1ccc(O)cc1)=NN2 (stereo not drawn) [5a, 5-Chloro-5′-(4-hydroxyphenyl)-2′,4′-dihydrospiro[indoline-3,3′-pyrazol]-2-one]
- IC50 (EGFR): 90 ± 50 nM
- IC50 (tubulin): 3850 ± 90 nM

Compound: O=C1Nc2ccc(Cl)cc2/C1=C\C(=O)c1ccc(O)cc1 [4a, (E)-5-Chloro-3-(2-(4-hydroxyphenyl)-2-oxoethylidene)indolin-2-one]
- IC50 (EGFR): 100 ± 70 nM

Compound: Nc1ccc(C(=O)C=C2C(=O)Nc3ccc(Cl)cc32)cc1 [4b]
- IC50 (EGFR): 50 ± 60 nM

Compound: COc1ccc(C2=NNC3(C2)C(=O)Nc2ccc(Cl)cc23)cc1 (stereo not drawn) [5c, 5-Chloro-5′-(4-methoxyphenyl)-2′,4′-dihydrospiro[indoline-3,3′-pyrazol]-2-one]
- IC50 (EGFR): 80 ± 80 nM

Compound: O=C1Nc2ccc(Cl)cc2C12CC(c1ccc(Cl)cc1)=NN2 (stereo not drawn) [5d, 5-Chloro-5′-(4-chlorophenyl)-2′,4′-dihydrospiro[indoline-3,3′-pyrazol]-2-one]
- IC50 (EGFR): 40 ± 90 nM

Compound: Tubulin polymerization inhibitor II [reference compound]
- IC50 (tubulin): 4500 ± 130 nM

Compound: Nc1ccc(C2=NNC3(C2)C(=O)Nc2ccc(Cl)cc23)cc1 (stereo not drawn) [5b, 5′-(4-Aminophenyl)-5-chloro-2′,4′-dihydrospiro[indoline-3,3′-pyrazol]-2-one]
- IC50 (EGFR): 70 ± 90 nM
- IC50 (tubulin): 4350 ± 110 nM
